Source: patent US6340764B1, “Reference compound for use in the analysis of levosimendan batches” (Orion Corporation, priority 1998, dated 2002)

System: bacterial mutagenity test (Ames test)
Assay: bacterial mutagenity test (Ames test)
Assay type: cell-based

SMILES	genotoxic / mutagenic properties in the bacterial mutagenity test (Ames test)
CC1CC(=O)OC1(N=[N+]=[N-])c1ccc(NN=C(C#N)C#N)cc1 (centres unmarked) [Compound (I), [[4-(2-azido-3-methyl-5-oxotetrahydrofuran-2-yl)phenyl]hydrazono]propanedinitrile]	potent mutagen
CC1CC(=O)NN=C1c1ccc(NN=C(C#N)C#N)cc1 (single isomer, unassigned; (-)) [levosimendan, (−)-enantiomer of [[4-(1,4,5,6-tetrahydro-4-methyl-6-oxo-3-pyridazinyl)phenyl]hydrazono]propanedinitrile]	show potential genotoxic properties occasionally
